Experimental data reported in patent US20090175911A1, “Bacterial Production of Carotenoids” (ROYAL HOLLOWAY AND BEDFORD NEW COLLEGE, priority 2005, published 2009).
≈ marks a conversion by molar mass, not a printed value. Like-named read-outs stand apart in the source and are kept apart here.

Key:
PY79 [1] = assay: MIC determination; assay type: cell-based; settings: Bacillus subtilis
HU36 [2] = assay: MIC determination; assay type: cell-based; settings: Bacillus
Natto = assay: Disc diffusion antibiogram; settings: 6 mm discs, amount per disc in brackets after each antibiotic, 18 h at 37° C., three experiments
HU36 [3] = assay: Disc diffusion antibiogram; assay type: cell-based, Bacillus
PY79 [4] = assay: Disc diffusion antibiogram; settings: 6 mm discs, amount per disc in brackets after each antibiotic, 18 h at 37° C., three experiments
[5] = Gastric stability of carotenoids in simulated gastric fluid (SGF); assay type: in vitro ADME; settings: SGF (1 mg/ml pepsin, 0.9% NaCl, pH 2), 37° C., by 20 minutes, versus 0 minutes
[6] = strains with MICs equal or higher are considered resistant, cited from earlier work

With `CC(C)(O/N=C(\C(=O)N[C@@H]1C(=O)N2C(C(=O)[O-])=C(C[n+]3ccccc3)CS[C@H]12)c1csc(N)n1)C(=O)O` [Ceftazidime] the MIC (PY79 [1]) was 0.025 µg/mL (≈ 0.0457 µM) and the MIC (HU36 [2]) was 0.05 µg/mL (≈ 0.0915 µM).

For `O=C(O)c1cn(C2CC2)c2cc(N3CCNCC3)c(F)cc2c1=O` [Ciporfloxacin], the “Zone of inhibition (mm)” value (Natto) was 33.3 ± 1.5 mm, the “Zone of inhibition (mm)” value (HU36 [3]) was 29.7 ± 0.6 mm and the “Zone of inhibition (mm)” value (PY79 [4]) was 32.8 ± 1 mm.

For `CC1=C(/C=C/C(C)=C/C=C/C(C)=C/C=C/C=C(C)/C=C/C=C(C)/C=C/C2=C(C)CCCC2(C)C)C(C)(C)CCC1` [carotenoid standard, beta-carotene], the carotenoid remaining [5] was “less than 1%”.

In the case of `CCC[C@@H]1C[C@@H](C(=O)N[C@@H]([C@H]2O[C@H](SC)[C@H](O)[C@@H](O)[C@H]2O)[C@H](C)Cl)N(C)C1` [Clindamycin], the MIC (PY79 [1]) is reported as 0.05 µg/mL (≈ 0.118 µM) and the MIC (HU36 [2]) is reported as 8 µg/mL (≈ 18.8 µM).

With `CCn1cc(C(=O)O)c(=O)c2ccc(C)nc21` [Naladixic acid] the “Zone of inhibition (mm)” value (Natto) was 23 ± 1.7 mm, the “Zone of inhibition (mm)” value (HU36 [3]; HU36, 6 mm discs, amount per disc in brackets after each antibiotic, 18 h at 37° C., three experiments) was 22.8 ± 1.4 mm and the “Zone of inhibition (mm)” value (PY79 [4]) was 20.7 ± 1.2 mm.

For Gentamycin, the “Breakpoints EFSA” value ([6]; (EFSA, 2005)) is listed as 4 mg/L and the “Breakpoints SCAN” value ([6]; (SCAN, 2002)) is listed as 8 mg/L.
